Source: ChEMBL document CHEMBL1157021, “Synthesis, structure and affinity of novel 3-alkoxy-1,2-dihydro-3H-1,4-benzodiazepin-2-ones for CNS central and peripheral benzodiazepine receptors” (Eur J Med Chem, 2010)

Legend:
[1] = Displacement of [3H]flumazenil from central benzodiazepine receptor in Wistar rat brain synaptosomal membrane after 60 mins by scintillation counting
[2] = biological target: Translocator protein (Rattus norvegicus, UniProt P16257); experiment: Displacement of [3H]PK11195 from peripheral benzodiazepine receptor in Wistar rat brain synaptosomal membrane after 120 mins by scintillation counting
Sequence of Translocator protein (P16257 whole entry, looked up): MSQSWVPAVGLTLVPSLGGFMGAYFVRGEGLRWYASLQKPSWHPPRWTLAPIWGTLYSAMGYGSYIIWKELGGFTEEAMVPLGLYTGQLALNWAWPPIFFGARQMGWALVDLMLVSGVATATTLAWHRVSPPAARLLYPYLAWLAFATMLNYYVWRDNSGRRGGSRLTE

[3] = Binding affinity to central benzodiazepine receptor

Row | SMILES | IC50 [1] | IC50 [2] | Ki [3]
1 | CCOC1N=C(c2ccccc2)c2cc(C)ccc2NC1=O (racemic) | > 1000 nM | > 1000 nM | 
2 | COCCOC1N=C(c2ccccc2Cl)c2cc(Br)ccc2NC1=O (racemic) | 9 nM | > 1000 nM | 
3 | CCOC1N=C(c2ccccc2Cl)c2cc(Br)ccc2NC1=O (racemic) | 52 nM | > 1000 nM | 
4 | COCCO[C@H]1N=C(c2ccccc2)c2cc(Br)ccc2NC1=O | 4930 nM | > 1000 nM | 
5 | COCCOC1N=C(c2ccccc2)c2cc(Br)ccc2NC1=O (racemic) | 510 nM | > 1000 nM | 
6 | O=C(O)CCC(=O)OC1N=C(c2ccccc2Cl)c2cc(Br)ccc2NC1=O (centres undefined) [CINAZEPAM] |  |  | 72 nM
7 | CCOC1N=C(c2ccccc2)c2cc(Br)ccc2NC1=O (racemic) | > 1000 nM | > 1000 nM | 
8 | O=C1Nc2ccc(Br)cc2C(c2ccccc2)=NC1OCCO (centres undefined) | 540 nM | > 1000 nM | 
9 | O=C1Nc2ccc(Br)cc2C(c2ccccc2Cl)=NC1OCCO (racemic) | 48 nM | > 1000 nM | 
10 | COCCO[C@@H]1N=C(c2ccccc2)c2cc(Br)ccc2NC1=O | 245 nM | > 1000 nM | 
